Values after ≈ are worked out from the molar mass of the structure shown.
Key:
human sEH = target: T1, human sEH (Homo sapiens, UniProt P34913); assay: kinetic fluorescent assay of sEH inhibitory potency; type: biochemical; conditions: for fold drop of activity compared to 3a: ratio of IC50 to that of 3a; for fold increase of activity compared to 3a: ratio of IC50 of 3a to that of the compound
T1 sequence (P34913 1-555): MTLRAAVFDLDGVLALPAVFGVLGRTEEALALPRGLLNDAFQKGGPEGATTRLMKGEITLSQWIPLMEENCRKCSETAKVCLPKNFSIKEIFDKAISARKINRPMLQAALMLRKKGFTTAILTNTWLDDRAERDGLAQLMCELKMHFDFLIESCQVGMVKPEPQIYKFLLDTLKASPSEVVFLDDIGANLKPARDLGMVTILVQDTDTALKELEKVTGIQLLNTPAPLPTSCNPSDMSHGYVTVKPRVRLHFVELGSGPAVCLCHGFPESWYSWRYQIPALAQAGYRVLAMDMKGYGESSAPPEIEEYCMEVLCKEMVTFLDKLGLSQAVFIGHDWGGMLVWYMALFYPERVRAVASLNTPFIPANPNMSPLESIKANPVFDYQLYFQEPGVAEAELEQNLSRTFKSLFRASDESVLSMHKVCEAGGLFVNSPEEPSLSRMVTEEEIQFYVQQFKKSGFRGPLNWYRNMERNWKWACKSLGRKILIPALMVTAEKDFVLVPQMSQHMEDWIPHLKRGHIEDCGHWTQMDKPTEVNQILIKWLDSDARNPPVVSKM

[1] = solubility in sodium phosphate buffer; type: physicochemical; conditions: pH 7.4, aqueous buffer, kinetic from dmso stock
[2] = experimental LogP by HPLC-MS; type: physicochemical

## O=C(Nc1ccccc1F)NC12CC3CC(CC(C3)C1)C2 [3a, 1-(Adamantan-1-yl)-3-(2-fluorophenyl) urea]
Human sEH
  fold more active than 2-hydroxy substituted analog: 37 fold
  fold more active than unsubstituted 1-(adamantan-1-yl)-3-phenyl urea: 4 fold
[1]
  solubility: 70 to 80 µM (≈ 20.2 to 23.1 µg/mL)

## O=C(NCC12CC3CC(CC(C3)C1)C2)Nc1ccccc1F [3b, 1-[(Adamantan-1-yl)methyl]-3-(2-fluorophenyl) urea]
[2]
  chromatographic logP: 4.4
[1]
  solubility: 60 to 70 µM (≈ 18.1 to 21.2 µg/mL)

## CC(NC(=O)Nc1ccccc1F)C12CC3CC(CC(C3)C1)C2 (stereo not shown) [3c, 1-[1-(Adamantan-1-yl)ethyl]-3-(2-fluorophenyl) urea]
Human sEH
  fold drop of activity compared to 3a: 15 fold
[2]
  chromatographic logP: 4.75
[1]
  solubility: 50 to 60 µM (≈ 15.8 to 19 µg/mL)

## CCC(CC12CC3CC(CC(C3)C1)C2)NC(=O)Nc1ccccc1F (stereo not shown) [3d, 1-[1-(Adamantan-1-yl)butane-2-yl]-3-(2-fluorophenyl) urea]
Human sEH
  fold drop of activity compared to 3a: 170 fold
[2]
  chromatographic logP: 5.8
[1]
  solubility: 50 to 60 µM (≈ 17.2 to 20.7 µg/mL)

## O=C(Nc1ccc(C23CC4CC(CC(C4)C2)C3)cc1)Nc1ccccc1F [3e, 1-[4-(Adamantan-1-yl)phenyl]-3-(2-fluorophenyl) urea]
[1]
  solubility: 80 to 90 µM (≈ 29.2 to 32.8 µg/mL)

## CC12CC3CC(C1)CC(NC(=O)Nc1ccccc1F)(C3)C2 [3f, 1-[3-methyl(Adamantan-1-yl)]-3-(2-fluorophenyl) urea]
Human sEH
  fold increase of activity compared to 3a: 2.5 fold
[1]
  solubility: 50 to 60 µM (≈ 15.1 to 18.1 µg/mL)

## CC12CC3(C)CC(C)(C1)CC(NC(=O)Nc1ccccc1F)(C2)C3 [3h, 1-[3,5,7-trimethyl(Adamantan-1-yl)]-3-(2-fluorophenyl) urea]
Human sEH
  fold drop of activity compared to 3a: 25 fold
[1]
  solubility: 70 to 80 µM (≈ 23.1 to 26.4 µg/mL)

## O=C(Nc1ccccc1F)NC1C2CC3CC(C2)CC1C3 (stereo not shown) [3i, 1-(Adamantan-2-yl)-3-(2-fluorophenyl) urea]
Human sEH
  fold increase of activity compared to 3a: 3.7 fold
[1]
  solubility: 80 to 90 µM (≈ 23.1 to 26 µg/mL)

## CCCC(CNC(=O)Nc1ccccc1F)C1C2CC3CC(C2)CC1C3 (stereo not shown) [3j, 1-[2-(Adamantan-2-yl)pentane-1-yl]-3-(2-fluorophenyl) urea]
[2]
  chromatographic logP: 6.55
